“Also recorded” adds a separate entry of the source.
Experiments:
p53^+/+ HCT116 cells = assay: Hypodiploid DNA content by propidium iodide staining and flow cytometry, p53+/+ HCT116; format: cell-based; settings: 0-20 μM, 48 hours
Protocol: Cells were collected and centrifuged at 3,000 rpm for 5 minutes at 4° C., and washed in PBS (pH 7.2). The cell pellet was solubilized in lysis buffer (20 mM Tris, pH 7.2, 0.5% deoxycholate, 1% Triton X-100, 0.1% SDS, 150 mM NaCl, 1 mM EDTA) containing proteases inhibitors (Complete, Roche Applied Science) for 30 min at 4° C. The lysate was cleared by centrifugation for 15 minutes, and protein concentration was evaluated using a Bio-Rad protein assay system (Bio-Rad Laboratories, Hercules, Calif.). […] Cells were analyzed for hypodiploid DNA content by propidium iodide staining and flow cytometry as described in O'Connor et al., Cancer Cell, 2:43-54 (2002). […]
The functional consequences of GSK3β inhibition were explored. […] Alternatively, cells were incubated with GSK3β inhibitors LiCl (30 mM) or TDZD (20 μM), harvested after 48 hours and analyzed for cell viability (propidium iodide, red channel) and active caspase-3/7 activity (green channel, […]®, from Chemicon International Inc., Temecula, Calif.), by multiparametric flow cytometry as reported previously in Kim et al., Lancet, 362:205-209 (2003).

[1] = test system: p53^+/+ HCT116 colorectal carcinoma cells; assay: Western blotting of p53 pathway proteins in treated p53+/+ HCT116 cells; format: cell-based
Protocol: Cells were collected and centrifuged at 3,000 rpm for 5 minutes at 4° C., and washed in PBS (pH 7.2). The cell pellet was solubilized in lysis buffer (20 mM Tris, pH 7.2, 0.5% deoxycholate, 1% Triton X-100, 0.1% SDS, 150 mM NaCl, 1 mM EDTA) containing proteases inhibitors (Complete, Roche Applied Science) for 30 min at 4° C. The lysate was cleared by centrifugation for 15 minutes, and protein concentration was evaluated using a Bio-Rad protein assay system (Bio-Rad Laboratories, Hercules, Calif.). Samples (30 μg) were separated by SDS-polyacrylamide gel, transferred to nylon membranes (Millipore), and incubated with primary antibodies to p53 (Oncogene Research Products, FL-393, Santa Cruz Biotechnology, Inc., Santa Cruz, Calif.), p21^Waf1/Cip1 (Oncogene Research Products), XIAP (BD Transduction Laboratories), survivin (NOVUS Biologicals, Littleton, Colo.), MDM2 (Santa Cruz Biotechnology, Inc.), p14^ARF (NOVUS Biologicals), caspase-3 (Cell Signaling Technology), cleaved caspase-3 (Cell Signaling Technology), β-catenin (BD Transduction Laboratories), cyclin B1 (GNS1, Santa Cruz Biotechnology, Inc.), GSK3β (Santa Cruz Biotechnology, Inc.), or β-sactin (Sigma) with detection of reactive bands by chemiluminescence (Amersham). Cells were analyzed for hypodiploid DNA content by propidium iodide staining and flow cytometry as described in O'Connor et al., Cancer Cell, 2:43-54 (2002). Chemicals whose source is not explicitly listed were or can be obtained from Sigma.
To explore the link between GSK3β inhibition and p53 modulation, in vivo, HCT116 cells were treated with Li, TDZD or SB216763, and analyzed cells by Western blotting. p53^+/+ or p53^−/− HCT116 cells were incubated with the following GSK3β inhibitors, LiCl (Sigma, 30 mM), thiadiazolidinone-8 (TDZD) (Calbiochem, 0-20 μM), or SB216763 (Sigma, 20 μM), cells were harvested after 6-24 hours, and samples were analyzed by Western blotting as described in Example 2. […]

GSK3β = GSK3β (Homo sapiens, UniProt P49841); assay: Immunoprecipitation and GSK3β kinase assay using glycogen synthase-derived peptide substrate, from treated HCT116 cells; format: cell-based; design: harvested after 6 or 12 hours, and immunoprecipitated with an antibody to GSK3β; endogenous in cells; host or cells: HCT116 (p53+/+) colorectal carcinoma cells; settings: p53+/+ HCT116 cells; Purvalanol A 10 μM, LiCl 30 mM, TDZD 20 μM; 6 or 12 hours
Protocol: Immune complexes were mixed with a synthetic peptide containing a GSK3β phosphorylation site derived from the sequence of glycogen synthase (Upstate Biotechnology) in the presence of 10 μCi of γ-^32P-ATP (Amersham Corp., Piscataway, N.J.), after 30 min incubation at 30° C., the reaction mixtures were centrifuged briefly, and 15 μl of the supernatant was spotted onto P81 phosphocellulose paper (Whatman Inc., Clifton, N.J.). The membrane was washed three times with 175 mM phosphoric acid, rinsed once in acetone, and dried. Changes in peptide phosphorylation under the various conditions tested were determined by scintillation counting. Data were analyzed using the unpaired t test on a Graphpad Prism software package for Windows (Graphpad Inc., San Diego, Calif.). A P value of 0.05 was considered as statistically significant.

p42/p44 MAP kinase = settings: in vivo, Knockaert et al.; cited from earlier work
p34^cdc2 = molecular target: T1, p34^cdc2 (Homo sapiens, UniProt P06493); assay: H1 histone kinase assay of p34cdc2 immunoprecipitated from treated HCT116 cells; format: cell-based
T1 construct: p34^cdc2 that was immunoprecipitated from HCT116 cells treated with vehicle for 6 to 48 hours consistently phosphorylated histone H1; endogenous in cells; host or cells: HCT116 colorectal carcinoma cells
Protocol: As shown in FIG. 2C (lanes labeled None), p34^cdc2 that was immunoprecipitated from HCT116 cells treated with vehicle for 6 to 48 hours consistently phosphorylated histone H1.

T1 sequence (P06493 whole entry): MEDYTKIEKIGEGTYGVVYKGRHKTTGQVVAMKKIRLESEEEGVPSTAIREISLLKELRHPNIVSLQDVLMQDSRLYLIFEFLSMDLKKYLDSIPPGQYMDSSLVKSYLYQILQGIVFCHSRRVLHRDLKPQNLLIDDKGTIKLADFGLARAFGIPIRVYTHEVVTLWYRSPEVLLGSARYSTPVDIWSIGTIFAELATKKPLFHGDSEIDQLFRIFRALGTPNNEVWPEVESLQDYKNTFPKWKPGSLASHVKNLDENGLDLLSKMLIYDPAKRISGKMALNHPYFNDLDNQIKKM
T1 sequence (P14635 whole entry partner): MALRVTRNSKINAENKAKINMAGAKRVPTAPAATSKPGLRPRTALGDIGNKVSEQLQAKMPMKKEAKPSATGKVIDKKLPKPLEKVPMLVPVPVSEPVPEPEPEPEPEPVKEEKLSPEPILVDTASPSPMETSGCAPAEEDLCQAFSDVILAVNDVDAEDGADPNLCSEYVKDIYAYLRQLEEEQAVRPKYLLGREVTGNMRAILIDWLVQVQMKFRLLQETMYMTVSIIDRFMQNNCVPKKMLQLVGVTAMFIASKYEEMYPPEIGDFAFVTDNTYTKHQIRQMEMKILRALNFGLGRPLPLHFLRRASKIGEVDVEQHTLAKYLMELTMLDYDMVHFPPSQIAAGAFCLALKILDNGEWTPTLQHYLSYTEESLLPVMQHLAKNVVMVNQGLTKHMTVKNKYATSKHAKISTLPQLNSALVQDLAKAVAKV
GSK3β, sequence (P49841 whole entry): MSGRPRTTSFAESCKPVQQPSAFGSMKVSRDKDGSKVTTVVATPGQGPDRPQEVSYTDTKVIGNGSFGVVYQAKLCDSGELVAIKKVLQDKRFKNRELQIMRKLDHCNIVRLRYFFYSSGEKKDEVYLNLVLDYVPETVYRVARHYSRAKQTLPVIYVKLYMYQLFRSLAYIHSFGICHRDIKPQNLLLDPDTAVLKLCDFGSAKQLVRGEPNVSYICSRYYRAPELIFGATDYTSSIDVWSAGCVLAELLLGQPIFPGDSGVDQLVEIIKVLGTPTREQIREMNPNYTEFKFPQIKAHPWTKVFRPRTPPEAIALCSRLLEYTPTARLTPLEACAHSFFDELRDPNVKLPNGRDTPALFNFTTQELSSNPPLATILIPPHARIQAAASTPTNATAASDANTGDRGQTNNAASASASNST

SMILES: CC(C)[C@H](CO)Nc1nc(Nc2cccc(Cl)c2)c2ncn(C(C)C)c2n1 [Purvalanol A]
- apoptosis (hypodiploid DNA content) (p53^+/+ HCT116 cells): concentration-dependent induction of apoptosis
- MDM2 expression (Western blot) ([1]; HCT116 cells): reduced expression
- p14^ARF expression (Western blot) ([1]; HCT116 cells, relative to vehicle): upregulation of p14^ARF
- XIAP expression (Western blot) ([1]; p53+/+ HCT116): no changes in the expression
- survivin expression (Western blot) ([1]; p53+/+ HCT116): loss of survivin expression; also recorded: time-dependent downregulation of survivin
- caspase-3 cleavage (Western blot) ([1]; p53+/+ HCT116, 10 μM, 6-48 hour): time-dependent cleavage of 32 kD proform caspase-3 to active caspase-3 fragments
- p21^Waf1/Cip1 expression (Western blot) ([1]; p53+/+ HCT116, 6-24 hours): upregulation of p21^Waf1/Cip1
- p53 expression (Western blot) ([1]; p53+/+ HCT116, 6-24 hours): time-dependent accumulation of p53
- GSK3β kinase activity (peptide phosphorylation) (GSK3β): potently inhibited GSK3β kinase activity
- suppression of p42/p44 MAP kinase (p42/p44 MAP kinase): equally effective
- p34^cdc2 kinase activity (histone H1 phosphorylation) (p34^cdc2; 6 and 12 hours of treatment): no apparent inhibition of p34^cdc2 kinase activity
- p34^cdc2 kinase activity (histone H1 phosphorylation) (p34^cdc2; 24 and 48 hours of treatment): did appear to suppress histone H1 phosphorylation

— patent US20060204980A1, “Colorectal cancer therapies” (priority 2004, published 2006)
